This note sets out measurements from PubChem BioAssay AID1996.

Molecules are shown by their SMILES. Converted amounts (≈) assume the structure as drawn. A value given as a limit tells only on which side of the number the result lay.

The conditions of this data set: buffer; pH 7.4; 200.0 µM.
Broadly, the solubility (kinetic) is the concentration staying in solution when a stock, usually in DMSO, is diluted into the medium. In turn, `O=C(CCCn1cnc2ccccc2c1=O)Nc1ccccc1F` came in with a solubility (kinetic) of 20.2 µg/mL (≈ 62.1 µM).

Consider `Cc1onc(-c2ccccc2Cl)c1C(=O)N1CCCCCC1`, for which the solubility (kinetic) was more than 47.8 µg/mL.

`CCSc1nsc(NC(=O)Nc2cccc(C(C)=O)c2)n1` gave a solubility (kinetic) of 1.6 µg/mL (≈ 4.96 µM).

In turn, `Cc1ccccc1NC(=S)N(Cc1ccccc1)Cc1cccs1` gave a solubility (kinetic) of 0.7 µg/mL (≈ 1.99 µM).

`CCN(CC)c1ccc(NC(=O)c2ccccc2Br)cc1S(=O)(=O)Nc1ccccc1OC`: the kinetic solubility amounted to 0.6 µg/mL (≈ 1.13 µM).

The molecule `COc1ccc(N2CC(NC(=O)Nc3ccccc3)CC2=O)cc1` (configuration not stated) gave a solubility (kinetic) of 19.7 µg/mL (≈ 60.5 µM).

`CCOc1cc(C2C(C#N)=C(N)Oc3cc(N)ccc32)ccc1O` (configuration not stated): the solubility (kinetic) turned out to be 33.5 µg/mL (≈ 104 µM).

For `Cc1ccsc1C(=O)NCCc1ccco1`, the kinetic solubility is 33.5 µg/mL (≈ 142 µM).

`Cc1cccc(C)c1NC(=O)CN(C)C(=O)C1CC1C` (configuration not stated): the solubility (kinetic) was more than 41.2 µg/mL.

Turning to `CCc1ccccc1N1C(=O)C2C3C=CC(CC3)C2C1=O` (configuration not stated), the solubility (kinetic) is more than 42.2 µg/mL.

`CC(C)c1ccc(OCc2ccc(C(=O)N3CCCC3)o2)cc1`: the kinetic solubility was found to be 26.7 µg/mL (≈ 85.2 µM).

Consider `OCC1(CCCc2ccccc2)CCN(C2CCC2)CC1`, for which the kinetic solubility is more than 43.1 µg/mL.

`COc1ccc(Cl)cc1NC(=O)CNc1ccccc1N1CCOCC1` had a kinetic solubility of less than 0.3 µg/mL.

`O=C(CCCc1ccccc1)Nc1cccc([N+](=O)[O-])c1` yielded a kinetic solubility of 26.4 µg/mL (≈ 92.9 µM).

The molecule `CS(=O)(=O)c1ccc(Cl)c(NC(=O)CNC(=O)c2ccc3c(c2)OCO3)c1` returned a solubility (kinetic) of more than 61.6 µg/mL.

For `CC(NC(=O)C1CCC(C)(C(=O)O)C1(C)C)c1ccccc1` (configuration not stated), the kinetic solubility was more than 45.5 µg/mL.

Take `CC1SC(c2ccc(F)cc2)N(CCc2ccccc2)C1=O` (configuration not stated): the solubility (kinetic) came to 21.8 µg/mL (≈ 69.1 µM).

For the molecule `O=C1N(Cc2ccc(F)cc2)CCN1c1ccc(F)cc1`, the solubility (kinetic) was 29.3 µg/mL (≈ 102 µM).

In the case of `Cc1ccnc(NS(=O)(=O)c2ccc3c(c2)CCO3)c1`, the solubility (kinetic) was determined as 10.4 µg/mL (≈ 35.8 µM).

In turn, `CCCOc1ccc(/C=C/C(=O)NC2CCCCC2)cc1OC` registered a kinetic solubility of less than 0.7 µg/mL.

`CCSC1=C(C#N)C2(CCCCC2)C2=C(CC(C)(C)CC2=O)N1` showed a solubility (kinetic) of 1 µg/mL (≈ 3.03 µM).

With `CCN1CCN(C(CNS(=O)(=O)c2cccs2)c2cccnc2)CC1` (configuration not stated), the solubility (kinetic) was determined as 49.3 µg/mL (≈ 130 µM).

For the molecule `COCCCn1c(SCC(=O)c2ccccc2)nc2ccccc2c1=O`, the kinetic solubility was determined as 1.1 µg/mL (≈ 2.99 µM).

For `CCOC(=O)c1ccc(NC(=S)NCc2ccc(F)cc2)cc1`, the kinetic solubility is 2.2 µg/mL (≈ 6.62 µM).

`CCc1cccc(C)c1N1C(=O)CN(Cc2ccccc2)C1=S`: the kinetic solubility was 12.1 µg/mL (≈ 37.3 µM).

As for `Cn1cc(S(=O)(=O)N2CCCC(C(=O)O)C2)cn1` (configuration not stated), the solubility (kinetic) was more than 41 µg/mL.

On to `COc1ccccc1NC(=O)c1ccc2nc(C)c(C)nc2c1`, for which the kinetic solubility came out at 16.3 µg/mL (≈ 53 µM).

In turn, `O=[N+]([O-])c1ccc(C2NS(=O)(=O)N=C3CCCCCN32)cc1` (configuration not stated) returned a kinetic solubility of more than 48.7 µg/mL.

With `Cc1cc(C)c(S(=O)(=O)NCc2cccnc2)c(C)c1`, the kinetic solubility was more than 43.6 µg/mL.

The molecule `O=C(O)C1CCCN1C1=NS(=O)(=O)c2ccccc21` (configuration not stated) yielded a solubility (kinetic) of more than 42 µg/mL.

As for `CCN(CC(=O)NCc1cccs1)C(=O)c1cccc(S(=O)(=O)N2CC(C)OC(C)C2)c1` (configuration not stated), the solubility (kinetic) is more than 71.9 µg/mL.

As to `CC(C)(CN1CCCC1)NS(=O)(=O)c1ccc(Cl)cc1`, the kinetic solubility is more than 47.5 µg/mL.

In turn, `CCn1nc(C(C)C(=O)O)c2ccccc2c1=O` (configuration not stated) displayed a solubility (kinetic) of more than 36.9 µg/mL.

Molecule `O=C(NCCCc1nc2ccccc2[nH]1)c1cccs1` displayed a kinetic solubility of 37.4 µg/mL (≈ 131 µM).

Turning to `CCOC(=O)c1sc(SC)nc1N`, the kinetic solubility worked out at 22.2 µg/mL (≈ 102 µM).

In turn, `N#Cc1cc2c(nc1Cl)CCC2` showed a solubility (kinetic) of 20.2 µg/mL (≈ 113 µM).

As to `O=C(Nc1cccnc1Cl)c1cc(-c2ccc(F)cc2)on1`, the solubility (kinetic) is less than 0.2 µg/mL.

With `CC(C)Oc1ccc(C(=O)Nc2cccc(S(=O)(=O)N3CCCC3)c2)cc1`, the solubility (kinetic) worked out at 8.5 µg/mL (≈ 21.9 µM).

`O=C(Nc1ccc(F)cc1)N1CCCN(c2nccc(C(F)(F)F)n2)CC1` returned a kinetic solubility of 57 µg/mL (≈ 149 µM).

`CC1C(=O)N2CCCc3cc(NS(=O)(=O)c4ccc(F)cc4)cc1c32` (configuration not stated) had a kinetic solubility of more than 54.1 µg/mL.

As to `COCCN1CC(C(=O)NCc2ncccc2C)CCC1=O` (configuration not stated), the kinetic solubility is more than 45.8 µg/mL.

For `COc1ccc(C2=NC(C)(C)Cc3cc(OC)c(OC)cc32)cc1`, the solubility (kinetic) was more than 48.8 µg/mL.

On to `CC(NC(=O)CCCc1c[nH]c2ccccc12)c1ccc(F)cc1` (configuration not stated), for which the kinetic solubility amounted to 41.5 µg/mL (≈ 128 µM).

For `CS(=O)(=O)N(CC(=O)Nc1ccc(Br)cc1)C1CCCCC1`, the solubility (kinetic) amounted to 55.5 µg/mL (≈ 143 µM).

Molecule `CCCn1c(=S)[nH]c2cc(Cl)ccc21` returned a solubility (kinetic) of 32.3 µg/mL (≈ 142 µM).

Turning to `O=C(NCc1cccnc1)C1CCN(S(=O)(=O)c2cc([N+](=O)[O-])ccc2Cl)CC1`, the kinetic solubility is more than 65.8 µg/mL.

As to `Cc1nc2ccccc2n1CC(=O)NC1CCCCCC1`, the solubility (kinetic) is more than 42.8 µg/mL.

As to `CCC(NC(=O)Nc1cc(C)on1)(C(F)(F)F)C(F)(F)F`, the kinetic solubility amounted to 14.6 µg/mL (≈ 45.7 µM).

In turn, `COc1ccccc1-n1ccnc(SCC(=O)NC2CCCC2)c1=O` gave a solubility (kinetic) of more than 53.9 µg/mL.

In turn, `Cc1ccc2cccc(NS(=O)(=O)c3ccccc3)c2n1` came in with a solubility (kinetic) of less than 0.3 µg/mL.

For the molecule `O=C(NCCCCc1ccccc1)Nc1ccc(F)cc1`, the solubility (kinetic) is 2.3 µg/mL (≈ 8.03 µM).

In the case of `Cc1c(C(=O)NC2CCCCC2)oc2ccc(F)cc12`, the solubility (kinetic) stood at 2.8 µg/mL (≈ 10.2 µM).
